Experimental data as given in patent US12285393B2, “Roles of modulators of intersectin-Cdc42 signaling in Alzheimer's disease” (priority 2017, dated 2025).

Columns and labels:
mice = test: Long-term survival after one injection; format: in vivo; settings: mouse, in vivo
Protocol: Long-term Survival. Groups of 10 mice were treated with one injection of ZCL278 (up to 0.8 mg/g), ZCL279 (up to 0.6 mg/g), or ZCL367 (up to 1.6 mg/g) to examine potential lethal dosage (the maximal dosage tested when no mice died). […] Durations longer than 3 months have not been tested. As a reference, working dosage for the behavioral assessment described below used 20 ug/g for injection, […] than the highest dosage of 0.8 mg/g tested in the long-term survival experiment.

[1] = system: microtubule-associated tau; test: Tau phosphorylation in the dentate gyrus (antibody AT8 immunostaining); format: in vivo, mice
Protocol: Tissue preparation: Mice were deeply anesthetized with 3% isoflourane vapor and euthanized by cervical dislocation. Brain tissues were harvested, and then either snap frozen for Western Blot analysis or fixed in 4% paraformaldehyde overnight for immunohistochemistry (IHC) analysis. Fixed brain tissues were washed with phosphate-buffered saline (PBS) and moved to cryoprotectant (30% sucrose in PBS) at 4° C. Once sunk in the cryoprotectant, brain tissues were subsequently embedded in the optimal cutting temperature compound (O.C.T) and rapidly frozen with chilled isopentane. Then, 8˜30 μm thickness of cryostate section was applied to brain tissues, 30 μm sections were immersed in the PBS and store at 4° C. refrigerator, and 8 μm sections were store at −80° C. refrigerator.
Immunohistochemistry analysis: All sections were first treated with 1% H2O2 in PBS for 20 minutes at room temperature, then incubated with 0.5% Triton X-100 for 30 minutes and blocked for 30 minutes at room temperature. Brain tissues were incubated with primary antibodies from Table 6, below. […] All sections were eventually dehydrated in 95% ethanol and mounted on coverslips for light microscopy (Carl Zeiss, Thornwood, New York, United States of America).
Methods: Brain tissues collected from each treatment group of mice from the behavior studies were subjected to pathological analysis (e.g., immunohistochemical analysis, as described above in Example 5). […] Growth cone dynamics and spine motility were either recorded with time-lapse microscopy or stained by using the fluorescein isothiocyanate (FITC) or Cyanine Dye 3 (Cy3)-conjugated Phalloidin.

Swiss 3T3 cells = test: Immunofluorescence, cell morphology and bradykinin-mediated activation; format: cell-based; settings: for changes to cell morphology: after 4 h of treatment, more drastic after six hours
Protocol: Immunofluorescence: Serum-starved Swiss 3T3 cells were pretreated with compound for 2 h before the addition of bradykinin (100 ng/mL) for 20 min. Cells were fixed in 4% paraformaldehyde for 15 min at RT and stored in PBS. Fixed cells were treated with 0.5% Triton for 30 min at RT, 100 mM Glycine 30 min at RT, and 10% BSA for 30 min at 37° C. Primary antibody for GM130 (1:1000, BD Biosciences, Franklin Lakes, New Jersey, United States of America) was used to probe for 1 h at RT followed by CY3-conjugated secondary antibody (1:1000) for 1 h at RT in the dark. Actin was stained with fluorescein-conjugated phalloidin (1:300). Hoechst (1:2500) was used to stain the nuclei. Coverslips were mounted onto slides using antifade medium from Life Technologies (Carlsbad, California, United States of America). Images were taken with a Zeiss Axiovert S100 microscope (Carl Zeiss; Thornwood, New York, United States of America).

WT and 3×Tg-AD mice = test: Eyeblink classical conditioning test; format: in vivo
Text: Six-month-old C57/BL6 (WT) and 3×Tg-AD mice with an average weight of 24 g from Jackson Laboratory (Bar Harbor, Maine, United States of America) were used. The 3×Tg-AD mice in hybrid 129/C57BL/6 background contain two mutant human transgenes, hAPP harboring Swedish mutation (hAPPswe) and mutant htau (htau301L) under a neuron-specific promoter, and also contain the knock-in mutant presenilin 1 (PS1M146V). See Oddo et al. (2003) Neuron 39:409-421). 3×Tg-AD mice were received from Jackson Laboratory as Psen1 B6:129-Psen1<tmMpm>Tg(APPSwetauP301L)1Lfa/J and the wild type control as SF2: (B6129SF1/J+p+Tyr-c+Mgf-SIJ)F2. All mice were subjected to two weeks of training for familiarizing behavioral test procedures. Subsequently, mice were assayed to establish a baseline of behavior tests before ZCL compound treatment. Then, mice were separated into three treatment groups (Control, ZCL278 and ZCL279). Both ZCL278 and ZCL279 were dissolved in sesame oil with 5% DMSO and each treatment was administrated via an intraperitoneal injection. All treatment groups of mice were treated once a week. Control group was treated with 130 μl 5% DMSO in sesame oil. ZCL278 and ZCL279 groups were treated with 20 μg/g ZCL 278 or ZCL 279 in sesame oil (5% DMSO). On the day following drug treatment, all mice were subjected to a burrowing test, nesting test and contact avoidance evaluations. On the 4th week of experiment, selected female mice from each group were submitted to Morris water maze test and eye blink test.
Eye blinking test: Eyeblink classical conditioning (ECC) behavior testing was performed based on a method described previously. See Rufer et al., PLoS One, 2012, 7(10):e47499; and Thomas & Tran, Hippocampus, 2012, 22:619-630. Briefly, the day after ZCL compound treatment, two stainless steel recording electrodes (3T, Medwire, Mount Vernon, New York, United States of America) were implanted in the left orbicularis oculi muscle in all mice, and a bipolar stimulating electrode adjacent to the left eye. […]

| Structure (SMILES) | Lethal Dosage (mice) | Longest Dosing Duration (mice) | phosphorylation of microtubule-associated tau in the dentate gyrus ([1]; 3×Tg AD mice) | phosphorylation of microtubule-associated tau in the dentate gyrus ([1]; WT mice) | kind of morphology change (Swiss 3T3 cells; Swiss 3T3 cells) | bradykinin-mediated activation (Swiss 3T3 cells; Swiss 3T3 cells, bradykinin 100 ng/mL) | changes to cell morphology (Swiss 3T3 cells) | CR percentage (WT and 3×Tg-AD mice; WT mice) | CR percentage (WT and 3×Tg-AD mice; AD mice, after 6 training sessions (control AD mice about 20%)) |
| --- | --- | --- | --- | --- | --- | --- | --- | --- | --- |
| Cc1cc(C)nc(NS(=O)(=O)c2ccc(NC(=S)NC(=O)COc3ccc(Br)cc3Cl)cc2)n1 [ZCL278, 4-(3-(2-(4-bromo-2-chloro-phenoxy)-acetyl)-thioureido)-N-(4,6-dimethylpyrimidin-2-yl)-benzenesulfonamide] | 0.8 mg/g | 3 months | not evident | no evidence | increase in ramification | inhibit bradykinin-mediated activation | significant changes to cell morphology | did not significantly change |  |
| O=S(=O)(Nc1ccccc1O)c1ccc2oc3ccc(S(=O)(=O)Nc4ccccc4O)cc3c2c1 [ZCL279, N^2,N^8-bis(2-hydroxyphenyl)dibenzo[b,d]furan-2,8-disulfonamide] | 0.6 mg/g | 3 months | not evident | no evidence | reduction in cell body size and formation of elongated processes |  | significant changes to cell morphology | did not significantly change | about 35% |
